Test results published in PMC7278358, “Kinetic parameters of human aspartate/asparagine–β-hydroxylase suggest that it has a possible function in oxygen sensing” (The Journal of Biological Chemistry, 2020).
Where “and” joins values, the source holds several entries; their conditions need not be identical. Equal entries are not always repeated. Where two headings read alike, the source gives them in different places.

Key:
[1] = molecular target: T1, human His6–AspH315–758 (Homo sapiens, UniProt Q12797); assay: AspH O2 dependence (variable O2 partial pressures, SPE-MS); format: biochemical; conditions: n = 4
T1 construct: a pET-28a(+) vector encoding for N-terminal His6-tagged AspH315–758 (His6–AspH315–758) was transformed into Escherichia coli BL21 (DE3) cells; made in house; host or cells: Escherichia coli BL21 (DE3)
T1 sequence (Q12797 315-758): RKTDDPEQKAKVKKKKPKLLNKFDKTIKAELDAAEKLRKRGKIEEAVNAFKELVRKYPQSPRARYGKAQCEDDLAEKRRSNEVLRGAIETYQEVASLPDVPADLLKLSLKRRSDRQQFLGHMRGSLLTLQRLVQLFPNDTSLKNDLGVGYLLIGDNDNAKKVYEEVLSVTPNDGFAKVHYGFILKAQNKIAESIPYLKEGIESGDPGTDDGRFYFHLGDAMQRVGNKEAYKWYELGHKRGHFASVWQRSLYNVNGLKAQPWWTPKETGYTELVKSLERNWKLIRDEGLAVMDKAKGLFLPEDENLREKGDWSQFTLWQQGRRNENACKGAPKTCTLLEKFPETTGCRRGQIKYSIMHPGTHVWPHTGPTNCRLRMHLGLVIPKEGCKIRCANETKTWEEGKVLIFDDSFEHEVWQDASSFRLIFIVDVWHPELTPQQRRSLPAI
Procedure: For determining vmax^app and Km^app of AspH for O2, 2.2 μM hFX–CP101–119 (65 μl) in 50 mM HEPES (pH 7.5) were exposed in a gas-tight glass vial to variable O2 concentrations (in nitrogen; Fig. S7) using a mass flow controller ([32]). After equilibrating the atmosphere, co-factor and co-substrates were added by syringe (1.5 μl of 4.7 mM LAA and 0.99 mM 2OG in MQ-grade water and 1.5 μl of 0.99 mM FAS in MQ-grade water) followed by 2.0 μl of 3.5 μM His6–AspH315–758 in 50 mM HEPES (pH 7.5) at 20 °C. The enzyme reaction was stopped after the indicated reaction time by the addition of 15% (v/v) aqueous formic acid (4 μl) and analyzed by SPE-MS using the configurations given above; the experiments were performed in independent quadruplicates. The data were analyzed as described, and the slopes of the initial reaction rates (Fig. S7) were fitted to a Michaelis–Menten plot using nonlinear regression (GraphPad Prism 5).

[2] = tested on: collagen prolyl 4-hydroxylases; conditions: read-out: Km app(O2); cited from earlier work
Description: (§1) At higher partial pressures of O2, the standard deviation among independent quadruplicates increased slightly because of efficient peptide hydroxylation requiring short reaction times; however, maximum velocities (vmax^app) were still similar within experimental error, indicating good data quality and reproducibility (Fig. S7). The AspH Km^app for O2 is high compared with the values reported for most oth ...

[3] = tested on: KDM4C; conditions: read-out: Km app(O2); cited from earlier work
Description: as §1

[4] = tested on: KDM4A; conditions: cited from earlier work
Description: as §1

[5] = tested on: FIH; conditions: peptide substrate HIF-1α CAD35mer, same experimental setup, cited from earlier work
Description: as §1

[6] = tested on: PHD2; conditions: same experimental setup, cited from earlier work; for Km: read-out: Km app for O2
Description: as §1

[7] = tested on: KDM4E; conditions: read-out: Km app(O2); cited from earlier work
Description: as §1

[8] = tested on: KDM6A; conditions: read-out: Km app(O2); cited from earlier work
Description: as §1

[9] = tested on: human phytanoyl-CoA hydroxylase; conditions: read-out: Km app(O2); cited from earlier work
Description: as §1

[10] = O2 varied, hFX–CP101–119 substrate

SMILES: O=O [O2]
- Km app of AspH for O2 [%] ([1]; O2 in nitrogen, 100 μM LAA, 20 μM 2OG, 20 μM FAS, 2.0 μM hFX-CP101-119, 0.1 μM His6-AspH315-758, pH 7.5, 20 °C): 47.2 ± 8.1 % O2
- vmax app ([1]; O2 varied (in nitrogen), 100 μM LAA, 20 μM 2OG, 20 μM FAS, 2.0 μM hFX–CP101–119, 0.1 μM His6–AspH315–758, 50 mM HEPES pH 7.5, 20 °C): 0.0207 ± 0.0018 µM/s
- Km ([1]; O2 varied (in nitrogen), 100 μM LAA, 20 μM 2OG, 20 μM FAS, 2.0 μM hFX–CP101–119, 0.1 μM His6–AspH315–758, 50 mM HEPES pH 7.5, 20 °C, O2 % converted by y[μM] = 9.026·x[%], read-out: Km app for O2): ~426 µM and 426 µM
- kcat [1, 10]: 0.23 ± 0.04 s⁻¹
- kcat/Km [1, 10]: 540 ± 130 M⁻¹ s⁻¹
- Km [2]: 40 µM
- Km [3]: 158 ± 13 µM
- Km ([4]; peptide substrate H3_1–15K9me3, same experimental setup, read-out: Km app for O2): ~173 µM and 173 µM
- Km ([4]; read-out: Km app(O2)): 57 ± 10 µM
- kcat [5]: 0.56 ± 0.04 s⁻¹
- Km ([5]; read-out: Km app for O2): ~110 µM and 110 µM
- kcat ([6]; peptide substrate HIF-1α CODD): 0.06 ± 0.01 s⁻¹
- Km ([6]; peptide substrate HIF-1α CODD): 460 ± 30 µM
- kcat ([6]; peptide substrate HIF-1α NODD): 0.028 ± 0.001 s⁻¹
- Km ([6]; peptide substrate HIF-1α NODD): > 450 µM
- Km [7]: 197 ± 16 µM
- Km [8]: 180 ± 40 µM
- Km [9]: 93 ± 43 µM
